Experimental data taken from ChEMBL document CHEMBL1144317, “Antimitotic activity and reversal of breast cancer resistance protein-mediated drug resistance by stilbenoids from Bletilla striata” (Bioorg Med Chem Lett, 2005).

Biological target: Beta tubulin
Test: Inhibition of tubulin polymerization interacting at the colchicine binding site.
Assay type: functional

`COc1c(O)ccc2c1ccc1c(Cc3ccc(O)cc3)c(O)cc(OC)c12` and `COc1cc(O)c(-c2c(O)cc(OC)c3c2ccc2cc(O)ccc23)c2ccc3cc(O)ccc3c12` [CIRRHOPETALANTHIN] are the same in IC50: 30 µM for the first, 30 µM for the second.

Compared with `COc1c(Cc2ccc(O)cc2)c(O)c(Cc2ccc(O)cc2)c2c1-c1ccc(O)cc1CC2`, `COc1cc(O)c2c(c1Cc1ccc(O)cc1)CCc1cc(O)ccc1-2` is 10-fold higher in IC50: 30 µM for the first, 300 µM for the second. The first is the more potent here.

`COc1cc(O)c(Cc2ccc(O)cc2)c(CCc2cccc(O)c2)c1Cc1ccc(O)cc1` and `COc1cc(O)cc(CCc2cccc(O)c2)c1Cc1ccc(O)cc1` are the same in IC50: 10 µM for the first, 10 µM for the second.

`COc1cc(O)c(-c2c(O)cc3c(c2OC)-c2ccc(O)cc2CC3)c2c1-c1ccc(O)cc1CC2` and `COc1cc(O)c(-c2c(O)cc(OC)c3c2ccc2cc(O)ccc23)c2c1-c1ccc(O)cc1CC2` [CIRRHOPETALANTHRIN] are the same in IC50: 30 µM for the first, 30 µM for the second.

Molecule `CC[C@]1(O)C[C@@H]2CN(CCc3c([nH]c4ccccc34)[C@@](C(=O)OC)(c3cc4c(cc3OC)N(C)[C@H]3[C@@](O)(C(=O)OC)[C@H](OC(C)=O)[C@]5(CC)C=CCN6CC[C@]43[C@@H]65)C2)C1` [VINBLASTINE] has an IC50 of 1 µM.
